These results are taken from patent publication US20260138978A1, “POSITIVE ALLOSTERIC MODULATORS OF THE MUSCARINIC ACETYLCHOLINE RECEPTOR M1” (Vanderbilt University, priority 2022, published 2026).

Experiment [1] concerns the target T1, human mAChRM1 (Homo sapiens, UniProt P11229).
T1 construct: host or cells: CHO-K1
T1 sequence (P11229 1-460): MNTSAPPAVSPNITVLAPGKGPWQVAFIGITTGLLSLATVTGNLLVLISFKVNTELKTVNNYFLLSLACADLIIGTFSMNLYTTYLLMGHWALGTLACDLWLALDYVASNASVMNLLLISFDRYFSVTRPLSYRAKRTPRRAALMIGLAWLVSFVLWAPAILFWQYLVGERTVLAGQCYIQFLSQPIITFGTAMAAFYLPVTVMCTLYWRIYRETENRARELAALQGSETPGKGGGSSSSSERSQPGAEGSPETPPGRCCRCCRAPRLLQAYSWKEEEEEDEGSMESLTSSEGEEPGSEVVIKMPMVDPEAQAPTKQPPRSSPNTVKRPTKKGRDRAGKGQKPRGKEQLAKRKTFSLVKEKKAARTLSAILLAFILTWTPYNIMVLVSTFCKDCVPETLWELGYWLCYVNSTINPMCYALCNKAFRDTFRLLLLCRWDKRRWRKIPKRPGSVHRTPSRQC
As to the kind of experiment: mAChR M1 cell-based functional assay (calcium mobilization), positive allosteric modulator activity: increase in the EC20 acetylcholine response. Conditions: for Emax: PAM mode; for EC50: read-out: PAM Activity Human M1 EC50. An outline of the steps: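 Potentiation is scored as the rise in an EC20 acetylcholine-evoked calcium signal across 11-point (1:3) compound series, fitted with a four-parameter logistic equation to give EC50 and Emax. Read-out is Fluo-4 fluorescence ratio in hM1-transfected CHO-K1 cells, measured kinetically on FDSS.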

The target in experiment [2] is T1, human mAChRM1. The experiment can be described thus: mAChR M1 cell-based functional assay (calcium mobilization), agonist activity upon compound addition, Emax relative to acetylcholine maximum. Conditions: for Agonist Activity Human M1 EC50 / EC50: calcium mobilization upon compound addition; for Emax: relative to the maximum for acetylcholine. In short, it runs like this: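 Emax is given as a percentage of the maximal acetylcholine response, from four-parameter curves of compound-evoked calcium mobilization. Human M1-transfected CHO-K1 cells carried Fluo-4 dye, and compound (11 concentrations, 1:3 steps) was applied at 4 s of a 300 s kinetic fluorescence recording.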
(Calcium flux is commonly read through the fluorescence of an indicator in the cells.)

Setting [3] is: increase in the EC20 acetylcholine response.

Bounds are passed on as bounds.

With `Cc1cc(-c2cc(C(C)(C)O)nn2C)ccc1CN1Cc2ncccc2C1=O` [Compound 69, 6-(4-(3-(2-hydroxypropan-2-yl)-1-methyl-1H-pyrazol-5-yl)-2-methylbenzyl)-6,7-dihydro-5H-pyrrolo[3,4-b]pyridin-5-one], the Emax – broadly, the size of the effect at its maximum, as opposed to the concentration needed – on human mAChRM1 [1] came to 36%. Moreover, at human mAChRM1 [1] (setting [3]), the EC50 – broadly, the concentration at which the effect is half-maximal – is not below 10000 nM. The “Agonist Activity Human M1 EC50” value at human mAChRM1 [2] is “inactive”.

Take `CC(C)(O)c1ccc(-c2cc(F)c(CN3Cc4ncccc4C3=O)c(F)c2)c2c1OCO2` [Compound 87, 6-(2,6-difluoro-4-(7-(2-hydroxypropan-2-yl)benzo[d][1,3]dioxol-4-yl)benzyl)-6,7-dihydro-5H-pyrrolo[3,4-b]pyridin-5-one]: the Emax on human mAChRM1 [1] was found to be 73%. On human mAChRM1 [1] (setting [3]), the EC50 was 1000 nM. For the same compound, the “Agonist Activity Human M1 EC50” value on human mAChRM1 [2] is “inactive”.

For `Cn1cc2cc(C(C)(C)O)cc(-c3cc(F)c(CN4Cc5ncccc5C4=O)c(F)c3)c2n1` [Compound 86, 6-(2,6-difluoro-4-(5-(2-hydroxypropan-2-yl)-2-methyl-2H-indazol-7-yl)benzyl)-6,7-dihydro-5H-pyrrolo[3,4-b]pyridin-5-one], at human mAChRM1 [1] (setting [3]), the “PAM Activity Human M1 EC50” value is “inactive”. Also, the “Agonist Activity Human M1 EC50” value on human mAChRM1 [2] is “inactive”.

Consider `Cn1cc2c(-c3cnc(CN4Cc5ncccc5C4=O)nc3)ccc(C(C)(C)O)c2n1` [Compound 110, 6-[[5-[7-(1-Hydroxy-1-methyl-ethyl)-2-methyl-indazol-4-yl]pyrimidin-2-yl]methyl]-7H-pyrrolo[3,4-b]pyridin-5-one], for which the Emax on human mAChRM1 [1] was 43%. On human mAChRM1 [1] (setting [3]), the EC50 was not below 10000 nM. In addition, the “Agonist Activity Human M1 EC50” value at human mAChRM1 [2] was “inactive”.

On to `[2H]C1([2H])c2ncccc2C(=O)N1Cc1c(C)cc(-c2ccc(C(C)(C)O)c3nn(C)cc23)cc1F` (single isomer, unassigned) [Compound 144, 6-(2-fluoro-4-(7-(2-hydroxypropan-2-yl)-2-methyl-2H-indazol-4-yl)-6-methylbenzyl)-6,7-dihydro-5H-pyrrolo[3,4-b]pyridin-5-one-7,7-d2], for which the Emax on human mAChRM1 [1] was found to be 89%; on human mAChRM1 [2], 58%. Moreover, the values for the EC50 at human mAChRM1 [1] (setting [3]) and at human mAChRM1 [2] were 101 nM and 5570 nM, respectively.

Consider `Cn1cc2cc(-c3cc(F)c(CN4Cc5ncccc5C4=O)c(Cl)c3)cc(C(C)(C)O)c2n1` [Compound 41, 6-(2-chloro-6-fluoro-4-(7-(2-hydroxypropan-2-yl)-2-methyl-2H-indazol-5-yl)benzyl)-6,7-dihydro-5H-pyrrolo[3,4-b]pyridin-5-one], for which the values for the Emax on human mAChRM1 [1] and on human mAChRM1 [2] were 67% and 12%, respectively. Also, the EC50 was 422 nM on human mAChRM1 [1] (setting [3]) and not below 10000 nM on human mAChRM1 [2].

On to `Cc1cc(-c2ccc(C(C)(C)O)c3nn(C)cc23)ccc1CN1Cc2cccc(F)c2C1=O` [Compound 161, 7-fluoro-2-(4-(7-(2-hydroxypropan-2-yl)-2-methyl-2H-indazol-4-yl)-2-methylbenzyl)isoindolin-1-one], for which the Emax on human mAChRM1 [1] turned out to be 80%. The EC50 on human mAChRM1 [1] (setting [3]) worked out at 521 nM. Moreover, the “Agonist Activity Human M1 EC50” value on human mAChRM1 [2] was “inactive”.

Consider `COc1cc(-c2ccc(C(C)(C)O)c3nn(C)cc23)cc(F)c1CN1Cc2cccnc2C1=O` [Compound 116, 6-(2-fluoro-4-(7-(2-hydroxypropan-2-yl)-2-methyl-2H-indazol-4-yl)-6-methoxybenzyl)-5,6-dihydro-7H-pyrrolo[3,4-b]pyridin-7-one], for which the Emax at human mAChRM1 [1] is 88%; on human mAChRM1 [2], 17%. The EC50 on human mAChRM1 [1] (setting [3]) was 233 nM; at human mAChRM1 [2], not below 10000 nM.

For the compound `Cn1cc(-c2ccc(CN3Cc4ncccc4C3=O)c(F)c2)c(C(C)(C)O)n1` [Compound 29, 6-(2-fluoro-4-(3-(2-hydroxypropan-2-yl)-1-methyl-1H-pyrazol-4-yl)benzyl)-6,7-dihydro-5H-pyrrolo[3,4-b]pyridin-5-one], the maximum response (Emax) on human mAChRM1 [1] stood at 56%. At human mAChRM1 [1] (setting [3]), the EC50 is not below 10000 nM. Further, at human mAChRM1 [2], the “Agonist Activity Human M1 EC50” value was “inactive”.

Regarding `Cn1cc2c(-c3ccc(CN4Cc5ncccc5C4=O)c(F)c3)ccc(C(C)(C)O)c2n1` [Compound 57, 6-(2-fluoro-4-(7-(2-hydroxypropan-2-yl)-2-methyl-2H-indazol-4-yl)benzyl)-6,7-dihydro-5H-pyrrolo[3,4-b]pyridin-5-one], the Emax on human mAChRM1 [1] came out at 69%; at human mAChRM1 [2], 11%. The figures for the EC50 at human mAChRM1 [1] (setting [3]) and at human mAChRM1 [2] were 181 nM and 5070 nM, respectively.

Regarding `Cn1cc2c(-c3cc(F)c(CN4Cc5ncc(Br)cc5C4=O)c(F)c3)ccc(C(C)(C)O)c2n1` [Compound 173, 3-bromo-6-(2,6-difluoro-4-(7-(2-hydroxypropan-2-yl)-2-methyl-2H-indazol-4-yl)benzyl)-6,7-dihydro-5H-pyrrolo[3,4-b]pyridin-5-one], the Emax at human mAChRM1 [1] was 75%. In addition, the EC50 on human mAChRM1 [1] (setting [3]) worked out at 414 nM. In addition, the “Agonist Activity Human M1 EC50” value at human mAChRM1 [2] is “inactive”.

Take `Cn1ncc2c(-c3cc(F)c(CN4Cc5ncccc5C4=O)c(F)c3)ccc(C(C)(C)O)c21` [Compound 79, 6-(2,6-difluoro-4-(7-(2-hydroxypropan-2-yl)-1-methyl-1H-indazol-4-yl)benzyl)-6,7-dihydro-5H-pyrrolo[3,4-b]pyridin-5-one]: at human mAChRM1 [1], the Emax amounted to 76%. In addition, on human mAChRM1 [1] (setting [3]), the EC50 stood at 1210 nM. Besides, the “Agonist Activity Human M1 EC50” value on human mAChRM1 [2] was “inactive”.

For `Cn1cc2c(-c3ccc(CN4Cc5ncccc5C4=O)cc3)ccc(C(C)(C)O)c2n1` [Compound 59, 6-(4-(7-(2-hydroxypropan-2-yl)-2-methyl-2H-indazol-4-yl)benzyl)-6,7-dihydro-5H-pyrrolo[3,4-b]pyridin-5-one], the Emax was 67% on human mAChRM1 [1] and 16% on human mAChRM1 [2]. For the same compound, the values for the EC50 on human mAChRM1 [1] (setting [3]) and at human mAChRM1 [2] were 396 nM and not below 10000 nM, respectively.

Take `Cn1cc2c(C(C)(C)O)cc(-c3ccc(CN4Cc5ncccc5C4=O)cc3)cc2n1` [Compound 23, 6-(4-(4-(2-hydroxypropan-2-yl)-2-methyl-2H-indazol-6-yl)benzyl)-6,7-dihydro-5H-pyrrolo[3,4-b]pyridin-5-one]: the Emax at human mAChRM1 [1] was found to be 48%. Besides, on human mAChRM1 [1] (setting [3]), the EC50 is not below 10000 nM. On human mAChRM1 [2], the “Agonist Activity Human M1 EC50” value is “inactive”.

Consider `[2H]C1([2H])c2ncccc2C(=O)N1Cc1c(F)cc(-c2ccc(C(C)(C)O)c3nn(C([2H])([2H])[2H])cc23)cc1C1CC1` (single isomer, unassigned) [Compound 147, 6-(2-cyclopropyl-6-fluoro-4-(7-(2-hydroxypropan-2-yl)-2-(methyl-d3)-2H-indazol-4-yl)benzyl)-6,7-dihydro-5H-pyrrolo[3,4-b]pyridin-5-one-7,7-d2], for which the Emax at human mAChRM1 [1] was determined as 62%; at human mAChRM1 [2], 43%. Besides, the EC50 at human mAChRM1 [1] (setting [3]) came to 74 nM; at human mAChRM1 [2] it was 6190 nM.

For `Cc1nc2c(-c3cc(F)c(CN4Cc5ncccc5C4=O)c(F)c3)ccc(C(C)(C)O)n2n1` [Compound 115, 6-(2,6-difluoro-4-(5-(2-hydroxypropan-2-yl)-2-methyl-[1,2,4]triazolo[1,5-a]pyridin-8-yl)benzyl)-6,7-dihydro-5H-pyrrolo[3,4-b]pyridin-5-one], the values for the Emax on human mAChRM1 [1] and at human mAChRM1 [2] were 89% and 29%, respectively. Further, the EC50 on human mAChRM1 [1] (setting [3]) came out at 531 nM; at human mAChRM1 [2] it was 8000 nM.

As for `CC(C)(O)c1ccc(-c2ccc(CN3Cc4cccnc4C3=O)cc2)cc1` [Compound 128, 6-((4′-(2-hydroxypropan-2-yl)-[1,1′-biphenyl]-4-yl)methyl)-5,6-dihydro-7H-pyrrolo[3,4-b]pyridin-7-one], the Emax on human mAChRM1 [1] is 57%. Moreover, at human mAChRM1 [1] (setting [3]), the EC50 is 7140 nM. The “Agonist Activity Human M1 EC50” value on human mAChRM1 [2] was “inactive”.

In the case of `CC(C)c1cnc2c(c1)C(=O)N(Cc1c(F)cc(-c3ccc(C(C)(C)O)c4nn(C)cc34)cc1F)C2` [Compound 177, 6-(2,6-difluoro-4-(7-(2-hydroxypropan-2-yl)-2-methyl-2H-indazol-4-yl)benzyl)-3-isopropyl-6,7-dihydro-5H-pyrrolo[3,4-b]pyridin-5-one], the Emax at human mAChRM1 [1] was found to be 75%. Moreover, the EC50 at human mAChRM1 [1] (setting [3]) amounted to 5100 nM. In addition, the “Agonist Activity Human M1 EC50” value at human mAChRM1 [2] is “inactive”.
